The values below come from patent US20070232638A1, “Opiopathies” (priority 2006, published 2007).

Structures are written as SMILES.

One assay deals with paresis/paralysis. The conditions noted are these: immediate or sustained release formulations; earlier application; cited from earlier work.
The subject of assay [1] is central pain in MS patients. As to conditions: intravenous 1.0 mg/ml morphine in physiological saline, response only after high doses; cited from earlier work.
Assay [2] deals with MS, Lou Gherig's Disease and Parkinson's Disease. The conditions noted are these: in vivo; cited from earlier work.
Assay [3] relates to paresis/paralysis of the tongue, larynx, pharynx, esophagus, urinary bladder sphincter, muscles of the lumbar and lumbo-sacral spine and of the pelvis and …. The experiment in a line: Opiate treatment of dogs with neuropathic paresis/paralysis (UROS/OPS case studies). The conditions noted are these: dog, in vivo.
Excerpt: In order to clinically diagnose and/or evaluate the effectiveness of a dose of an anti-opiopathic active agent or formulation, over time, when being used to treat an opiopathic ailment, the following grading protocol can be employed to quantify and document function of the target muscle(s) and/or organ(s).
In grading the evaluations, an organ is considered to be neurologically normal when there is no neuropathology affecting its function. Because in most cases an organ can be clearly identified as having normal neurologic function, decreased neurologic function (paresis), or no neurologic function (paralysis), the documenting of the degree of remaining neurologic function of an organ lends itself to a simple grading system. An organ that functions normally and has no observable signs or symptoms is considered to be neurologically normal and receives the lowest score (0). An organ that has no function as a result of a neurologic/neurogenic ailment and is paralyzed, receives the highest score (10). An organ that has a partial loss of function (paresis) receives a score between (1) and (9), depending on the degree of function remaining. A decrease of the score of a function after administration of an anti-opiopathic active agent or formulation, indicates effectiveness roughly proportional to the relative decrease. […]

Regarding `COc1ccc2c3c1O[C@H]1C(=O)CC[C@H]4[C@@H](C2)N(C)CC[C@]314` [hydrocodone], the reversal of paresis/paralysis result with paresis/paralysis is listed as “successful reversal”.
For the compound `CN1CC[C@]23c4c5ccc(O)c4O[C@H]2[C@@H](O)C=C[C@H]3[C@H]1C5.O=S(=O)(O)O` [morphine sulfate], the reversal of paresis/paralysis entry in the assay with paresis/paralysis is “successful reversal”.
As for `CN1CC[C@]23c4c5ccc(O)c4O[C@H]2[C@@H](O)C=C[C@H]3[C@H]1C5` [morphine], the “responsiveness of neuropathic (central) pain” value in assay [1] is “poorly responsive, but not totally unresponsive”.
Consider `O=C1CC[C@@]2(O)[C@H]3Cc4ccc(O)c5c4[C@@]2(CCN3CC2CC2)[C@H]1O5` [naltrexone], for which the treatment outcome in assay [2] is “limited success”.
Turning to `COc1ccc2c3c1O[C@H]1C(=O)CC[C@@]4(O)[C@@H](C2)N(C)CC[C@]314` [oxycodone], in assay [3], the “reversing paresis/paralysis in the larynx” value was “effective” and the “treating urinary bladder sphincter paresis/paralysis” value was “effective”. For the same compound, the reversal of paresis/paralysis result with paresis/paralysis is “successful reversal”.
